# Experimental data taken from patent US5747466A, “3-deoxy-3-descladinose derivatives of erythromycins A and B” (Abbott Laboratories, priority 1996, dated 1998).
# Legend:
# Experiment in all cases: In vitro antibacterial activity (MIC), agar dilution
# ESCHERICHIA COLI JUHL = format: cell-based; details: E. coli JUHL; BHI agar, 35-37 °C, 20-24 h
# ESCHERICHIA COLI DC-2 = format: cell-based; details: E. coli DC-2; BHI agar, 35-37 °C, 20-24 h
# [1] = tested on: STAPHYLOCOCCUS AUREUS A5177; format: cell-based; details: S. aureus A5177; BHI agar, 35-37 °C, 20-24 h
# [2] = tested on: STREPTOCOCCUS PYOGENES EES61; format: cell-based; details: S. pyogenes EES61; BHI agar, 35-37 °C, 20-24 h
# [3] = tested on: STAPHYLOCOCCUS AUREUS A-5278; format: cell-based; details: S. aureus A-5278; BHI agar, 35-37 °C, 20-24 h
# [4] = tested on: STAPHYLOCOCCUS AUREUS CMX 553; format: cell-based; details: S. aureus CMX 553; BHI agar, 35-37 °C, 20-24 h
# [5] = tested on: STAPHYLOCOCCUS EPIDERMIDIS 3519; format: cell-based; details: S. epidermidis 3519; BHI agar, 35-37 °C, 20-24 h
# [6] = tested on: STAPHYLOCOCCUS AUREUS NCTC10649M; format: cell-based; details: S. aureus NCTC10649M; BHI agar, 35-37 °C, 20-24 h
# [7] = tested on: PSEUDOMONAS AERUGINOSA DPHD-5263; format: cell-based; details: P. aeruginosa DPHD-5263; BHI agar, 35-37 °C, 20-24 h
# [8] = tested on: STAPHYLOCOCCUS AUREUS CMX 642A; format: cell-based; details: S. aureus CMX 642A; BHI agar, 35-37 °C, 20-24 h
# EN[…] ATCC 8043 = format: cell-based, Enterococcus faecium; details: E. faecium ATCC 8043; BHI agar, 35-37 °C, 20-24 h
# Description: (§1) Representative compounds of the present invention were assayed in vitro for antibacterial activity as follows: Twelve petri dishes containing successive aqueous dilutions of the test compound mixed with 10 mL of sterilized Brain Heart Infusion (BHI) agar (Difco 0418-01-5) were prepared. Each plate was inoculated with 1:100 (or 1:10 for slow-growing strains, such as Micrococcus and Streptococcus) dilutions of up to 32 different microorganisms, using a Steers replicator block. The inoculated plates were incubated at 35°-37° C. for 20 to 24 hours. In addition, a control plate, using BHI agar containing no test compound, was prepared and incubated at the beginning and end of each test.
# (§2) An additional plate containing a compound having known susceptibility patterns for the organisms being tested and belonging to the same antibiotic class as the test compound was also prepared and incubated as a further control, as well as to provide test-to-test comparability. Erythromycin A was used for this purpose.
# (§3) After incubation, each plate was examined. The minimum inhibitory concentration (MIC) was defined as the lowest concentration of drug yielding no growth, a slight haze, or sparsely isolated colonies on the inoculum spot as compared to the growth control.
# [9] = tested on: PSEUDOMONAS AERUGINOSA K799/61; format: cell-based; details: P. aeruginosa K799/61; BHI agar, 35-37 °C, 20-24 h
# PSEUDOMONAS CEPACIA 296I = format: cell-based; details: P. cepacia 296I; BHI agar, 35-37 °C, 20-24 h
# [10] = tested on: PSEUDOMONAS AERUGINOSA K799/WT; format: cell-based; details: P. aeruginosa K799/WT; BHI agar, 35-37 °C, 20-24 h
# [11] = tested on: KLEBSIELLA PNEUMONIAE ATCC 8045; format: cell-based; details: K. pneumoniae ATCC 8045; BHI agar, 35-37 °C, 20-24 h
# [12] = tested on: PSEUDOMONAS AERUGINOSA 5007; format: cell-based; details: P. aeruginosa 5007; BHI agar, 35-37 °C, 20-24 h
# [13] = tested on: NOCARDIA ARSTEROIDES ATCC 9970; format: cell-based; details: Nocardia ATCC 9970; BHI agar, 35-37 °C, 20-24 h
# [14] = tested on: STREPTOCOCCUS BOVIS A-5169; format: cell-based; details: S. bovis A-5169; BHI agar, 35-37 °C, 20-24 h
# ESCHERICHIA COLI H560 = format: cell-based; details: E. coli H560; BHI agar, 35-37 °C, 20-24 h
# ESCHERICHIA COLI KNK 437 = format: cell-based; details: E. coli KNK 437; BHI agar, 35-37 °C, 20-24 h
# [15] = tested on: ENTEROBACTER AEROGENES ATCC 13048; format: cell-based; details: E. aerogenes ATCC 13048; BHI agar, 35-37 °C, 20-24 h
# [16] = tested on: STREPTOCOCCUS PYOGENES 930; format: cell-based; details: S. pyogenes 930; BHI agar, 35-37 °C, 20-24 h
# STR[…] 508 = format: cell-based, Streptococcus agalactiae; details: S. agalactiae CMX 508; BHI agar, 35-37 °C, 20-24 h
# Description: as §1, §2, §3
# [17] = tested on: MYCOBACTERIUM SMEGMATIS ATCC 114; format: cell-based; details: M. smegmatis ATCC 114; BHI agar, 35-37 °C, 20-24 h
# [18] = tested on: STAPHYLOCOCCUS AUREUS ATCC 6538P; format: cell-based; details: S. aureus ATCC 6538P; BHI agar, 35-37 °C, 20-24 h
Compound,minimum inhibitory concentration (MIC) (ESCHERICHIA COLI DC-2),minimum inhibitory concentration (MIC) [1],minimum inhibitory concentration (MIC) [2],minimum inhibitory concentration (MIC) [3],minimum inhibitory concentration (MIC) [4],minimum inhibitory concentration (MIC) [5],minimum inhibitory concentration (MIC) [6],minimum inhibitory concentration (MIC) [7],minimum inhibitory concentration (MIC) [8],minimum inhibitory concentration (MIC) (EN[…] ATCC 8043),minimum inhibitory concentration (MIC) [9],minimum inhibitory concentration (MIC) [10],minimum inhibitory concentration (MIC) [11],minimum inhibitory concentration (MIC) [12],minimum inhibitory concentration (MIC) [13],minimum inhibitory concentration (MIC) [14],minimum inhibitory concentration (MIC) (ESCHERICHIA COLI H560),minimum inhibitory concentration (MIC) (ESCHERICHIA COLI KNK 437),minimum inhibitory concentration (MIC) [15],minimum inhibitory concentration (MIC) [16],also measured
CC[C@H]1OC(=O)[C@H](C)C[C@H](C)[C@@H](O[C@@H]2O[C@H](C)C[C@H](N(C)C)[C@H]2O)[C@](C)(OC)C[C@@H](C)C(=NO)[C@H](C)[C@@H](O)[C@]1(C)O [Ex. 2],> 100,25,0.78,> 100,12.5,12.5,12.5,> 100,12.5,3.1,> 100,> 100,> 100,> 100,0.02,0.78,> 100,> 100,> 100,> 100,minimum inhibitory concentration (MIC) (ESCHERICHIA COLI JUHL): > 100; minimum inhibitory concentration (MIC) (PSEUDOMONAS CEPACIA 296I): > 100; minimum inhibitory concentration (MIC) (STR[…] 508): 0.78; minimum inhibitory concentration (MIC) [17]: 6.2
CC[C@H]1OC(=O)[C@H](C)C[C@H](C)[C@@H](O[C@@H]2O[C@H](C)C[C@H](N(C)C)[C@H]2O)[C@](C)(OC)C[C@@H](C)C(=O)[C@H](C)[C@H]2N(CCCCc3ccccc3)C(=O)O[C@]12C [Ex. 4],50,1.56,0.05,50,1.56,1.56,1.56,100,1.56,0.39,12.5,100,> 100,> 100,3.1,0.02,25,> 100,> 100,6.2,minimum inhibitory concentration (MIC) (ESCHERICHIA COLI JUHL): > 100; minimum inhibitory concentration (MIC) [18]: 1.56; minimum inhibitory concentration (MIC) (STR[…] 508): 0.1; minimum inhibitory concentration (MIC) [17]: 1.56
CC[C@H]1OC(=O)[C@H](C)C[C@H](C)[C@@H](O[C@@H]2O[C@H](C)C[C@H](N(C)C)[C@H]2O)[C@](C)(OC)C[C@@H](C)C(=O)[C@H](C)[C@H]2N(CCc3ccc(Oc4ccccc4)cc3)C(=O)O[C@]12C [Ex. 5],12.5,6.2,1.56,25,6.2,12.5,6.2,> 100,12.5,1.56,> 100,> 100,> 100,> 100,3.1,1.56,> 100,> 100,> 100,6.2,minimum inhibitory concentration (MIC) (PSEUDOMONAS CEPACIA 296I): 100; minimum inhibitory concentration (MIC) [18]: 12.5; minimum inhibitory concentration (MIC) (STR[…] 508): 1.56; minimum inhibitory concentration (MIC) [17]: 3.1
CC[C@H]1OC(=O)[C@H](C)C[C@H](C)[C@@H](O[C@@H]2O[C@H](C)C[C@H](N(C)C)[C@H]2O)[C@](C)(OC)C[C@@H](C)C(=NOC)[C@H](C)[C@@H](O)[C@]1(C)O [Ex. 6],0.78,6.2,0.39,> 100,6.2,12.5,6.2,50,6.2,0.78,> 100,> 100,> 100,> 100,0.78,0.39,50,25,> 100,> 100,minimum inhibitory concentration (MIC) (PSEUDOMONAS CEPACIA 296I): 12.5; minimum inhibitory concentration (MIC) [18]: 6.2; minimum inhibitory concentration (MIC) (STR[…] 508): 0.39; minimum inhibitory concentration (MIC) [17]: 3.1
